Measurements from patent publication US7019021B2, “Compounds and methods for treating urinary incontinence” (Boehringer Ingelheim Pharma GmbH & Co. KG, priority 1995, dated 2006).

System: urethra
Experiment: Intraluminal pressure of the urethra in the anaesthetised rabbit
Type: in vivo
Conditions: i.v.; for Contraction of the urethra / Duration of effect (contraction of the urethra): female Japanese white rabbits, urethane anaesthesia, phenylephrine 30 μg/kg vs Example 2 10 μg/kg, phenylephrine = 100
Experimental: Female Japanese white rabbits (weighing 3.0 to 3.5 kg) are anaesthetised with urethane (1 g/kg i.p.). A polyethylene cannula is inserted in the urinary bladder by means of a small incision. The changes in the intraluminal pressure are recorded by means of balloon in the urethra which contains about 1.5 ml of water at 37° C.

[1] = rabbit, 10 μg/kg Example 2 vs 30 μg/kg phenylephrine, factor

CNC[C@H](O)c1cccc(O)c1 [Phenylephrine, phenylephrine]
Contraction of the urethra: 100% | Duration of effect (contraction of the urethra): 100%

Cc1c(N(C)C)ccc(Br)c1N=C1NCCN1 [Example 2, 2-(6-Bromo-3-dimethylamino-2-methylphenylimino)imidazolidine]
Contraction of the urethra: 273% | Duration of effect (contraction of the urethra): 430% | duration of effect (contraction of the urethra), longer by a factor compared with phenylephrine [1]: 4.3 | potency with regard to the contraction of the urethra, higher by a factor compared with phenylephrine [1]: 2.73
